Laboratory results: US20190105367A1, “ANTIMICROBIAL 4-OXOQUINOLIZINES” (Emergent Product Development Gaithersburg Inc., priority 2011, published 2019)
Values after ≈ are worked out from the molar mass of the structure shown. Like-named read-outs stand apart in the source and are kept apart here.

Experiments:
[1] = test system: strains of A. baumannii and one strain of Acinetobacter sp.; experiment: MIC with sub-inhibitory concentrations (0.25x MIC) of polymyxin B, panel of Acinetobacter strains (Example 4); format: cell-based
A. baumannii ATCC 19606 = experiment: MIC without and with sub-inhibitory polymyxin B (Example 4); format: cell-based, Acinetobacter baumannii; conditions: for MIC without PB/MIC + PB: A. baumannii ATCC 19606; for MIC: Acinetobacter baumannii
A. baumannii J2 = experiment: as above; format: cell-based, Acinetobacter baumannii; conditions: for MIC without PB/MIC + PB: A. baumannii J2; for MIC: Acinetobacter baumannii
[2] = test system: Acinetobacter sp. (H064200250); experiment: as above; format: cell-based
A. baumannii A329 = experiment: as above; format: cell-based, Acinetobacter baumannii; conditions: A. baumannii A329; +0.06 μg/ml PB; 2nd experiment
A. baumannii A387 [3] = experiment: as above; format: cell-based, Acinetobacter baumannii; conditions: for MIC without PB/MIC + PB: A. baumannii A387
A. baumannii A387 [4] = experiment: Preliminary MBC without and with sub-inhibitory polymyxin B (Example 4); format: cell-based, Acinetobacter baumannii; conditions: Acinetobacter baumannii, A387, A. baumannii A387, +0.06 μg/ml PB, 2nd experiment, read-out: MBC
A. baumannii A390 [5] = experiment: MIC without and with sub-inhibitory polymyxin B (Example 4); format: cell-based, Acinetobacter baumannii; conditions: +0.06 μg/ml PB, 2nd experiment
A. baumannii A14 [6] = experiment: Preliminary MBC without and with sub-inhibitory polymyxin B (Example 4); format: cell-based, Acinetobacter baumannii; conditions: A. baumannii A14, +0.06 μg/ml PB, 2nd experiment
Procedure: (§1) The plates were incubated for 18-20 hours at 37° C. The MBC was read as the lowest concentration at which colony growth was ca. 90% less than the positive control (i.e. usually where single colonies or no colonies were observed).

A. baumannii A390 [7] = experiment: as above; format: cell-based, Acinetobacter baumannii; conditions: Acinetobacter baumannii, A390, A. baumannii A390, +0.06 μg/ml PB, 2nd experiment, read-out: MBC
Procedure: as §1

A. baumannii A473 [8] = experiment: as above; format: cell-based, Acinetobacter baumannii; conditions: Acinetobacter baumannii, A473, A. baumannii A473, +0.06 μg/ml PB, 2nd experiment, read-out: MBC
Procedure: as §1

A. baumannii NCTC 13301 [9] = experiment: as above; format: cell-based, Acinetobacter baumannii; conditions: Acinetobacter baumannii
Procedure: as §1

A. baumannii A401 = experiment: MIC without and with sub-inhibitory polymyxin B (Example 4); format: cell-based, Acinetobacter baumannii; conditions: A baumannii A 401; ratio, PB 0.06 μg/ml; 1st experiment
A. baumannii A472 [10] = experiment: as above; format: cell-based, Acinetobacter baumannii; conditions: for MIC: Acinetobacter baumannii
A. baumannii A472 [11] = experiment: Preliminary MBC without and with sub-inhibitory polymyxin B (Example 4); format: cell-based, Acinetobacter baumannii; conditions: Acinetobacter baumannii, preliminary MBC
A. baumannii A473 [12] = experiment: MIC without and with sub-inhibitory polymyxin B (Example 4); format: cell-based, Acinetobacter baumannii
A. baumannii A489 = experiment: Preliminary MBC without and with sub-inhibitory polymyxin B (Example 4); format: cell-based, Acinetobacter baumannii; conditions: Acinetobacter baumannii, preliminary MBC
A. baumannii NCTC 13301 [13] = experiment: MIC without and with sub-inhibitory polymyxin B (Example 4); format: cell-based, Acinetobacter baumannii
A. baumannii NCTC 13301 [14] = experiment: as above; format: cell-based, Acinetobacter baumannii; remark: listed apart in the source
A. baumannii A14 [15] = experiment: as above; format: cell-based, Acinetobacter baumannii; conditions: 1st experiment
A. baumannii A14 [16] = experiment: as above; format: cell-based, Acinetobacter baumannii; conditions: A. baumannii A14; +0.06 μg/ml PB; 2nd experiment
A. baumannii A14 [17] = experiment: Preliminary MBC without and with sub-inhibitory polymyxin B (Example 4); format: cell-based, Acinetobacter baumannii; conditions: A. baumannii A14; +0.06 μg/ml polymyxin B; preliminary MBC; 1st experiment
[18] = ratio, PB 0.06 μg/ml, 1st experiment

With `NCC[C@H](O)C(=O)N[C@@H]1C[C@H](N)[C@@H](O[C@H]2O[C@H](CN)[C@@H](O)[C@H](O)[C@H]2O)[C@H](O)[C@H]1O[C@H]1O[C@H](CO)[C@@H](O)[C@H](N)[C@H]1O` [Amikacin, reference compound] the “Change of activity (MIC) in presence of polymyxin B compared to without polymyxin B” value [1] was “not significantly affected”, the “Range ratios MIC without PB/MIC with PB Oct. 14, 2008 n = 11” value ([1]; 2nd experiment) was 1-16 and the “MIC without PB/MIC + PB” value (A. baumannii ATCC 19606; +0.06 μg/ml PB, 2nd experiment) was 2. The “MIC without PB/MIC + PB” value (A. baumannii ATCC 19606; [18]) was 2, the MIC (A. baumannii ATCC 19606; ATCC19606, A. baumannii ATCC 19606, +0.06 μg/ml PB, 2nd experiment, read-out: MIC) was 8 µg/mL (≈ 13.7 µM) and the MIC (A. baumannii ATCC 19606; ATCC19606, read-out: MIC +0.06 μg/ml PB, A. baumannii ATCC 19606, +0.06 μg/ml polymyxin B, 1st experiment) was 8 µg/mL. The “MIC without PB/MIC + PB” value (A. baumannii J2; +[…] PB, 2nd experiment) was 16, the “MIC without PB/MIC + PB” value (A. baumannii J2; ratio, PB […], 1st experiment) was 8 and the MIC (A. baumannii J2; J2, A. baumannii J2, +[…] PB, 2nd experiment, read-out: MIC) was 0.5 µg/mL (≈ 0.854 µM). The MIC (A. baumannii J2; J2, read-out: MIC +[…] PB, A. baumannii J2, +[…] polymyxin B, 1st experiment) was 4 µg/mL (≈ 6.83 µM), the “MIC without PB/MIC + PB” value ([2]; Acinetobacter spp. H064200250 (OXA51), +[…] PB, 2nd experiment) was 8 and the “MIC without PB/MIC + PB” value ([2]; Acinetobacter spp. H064200250, ratio, PB […], 1st experiment) was 1. For the same molecule, the MIC ([2]; Acinetobacter, Acinetobacter spp. H064200250 (OXA51), +[…] PB, 2nd experiment, read-out: MIC) was 1 µg/mL (≈ 1.71 µM), the “MIC without PB/MIC + PB” value (A. baumannii A329) was 1 and the “MIC without PB/MIC + PB” value (A. baumannii A387 [3]; +0.06 μg/ml PB, 2nd experiment) was ≥1. For the same molecule, the “MIC without PB/MIC + PB” value (A. baumannii A387 [3]; [18]) was ≥1, the MIC (A. baumannii A387 [3]; Acinetobacter baumannii, A387) was 128 µg/mL (≈ 219 µM) and the MBC (A. baumannii A387 [4]) was 128 µg/mL (≈ 219 µM). For the same molecule, the “MIC without PB/MIC + PB” value (A. baumannii A390 [5]; A. baumannii A390) was ≥2, the MIC (A. baumannii A390 [5]; Acinetobacter baumannii, A390, A. baumannii A390, read-out: MIC) was 64 µg/mL (≈ 109 µM) and the MBC (A. baumannii A14 [6]) was 8 µg/mL (≈ 13.7 µM). The MBC (A. baumannii A390 [7]) was 64 µg/mL (≈ 109 µM), the MBC (A. baumannii A473 [8]) was 128 µg/mL (≈ 219 µM) and the MBC (A. baumannii NCTC 13301 [9]; NCTC13301, A. baumannii NCTC 13301, +[…] PB, preliminary MBC, 2nd experiment, read-out: MBC) was 64 µg/mL (≈ 109 µM). For the same molecule, the MBC (A. baumannii NCTC 13301 [9]; NCTC13301, read-out: MBC +[…] PB) was > 128 µg/mL, the “MIC without PB/MIC + PB” value (A. baumannii A401) was ≥1 and the “MIC without PB/MIC + PB” value (A. baumannii A472 [10]; A. baumannii A472, ratio, PB […], 1st experiment) was ≥8. For the same molecule, the MIC (A. baumannii A472 [10]; A472, A. baumannii A472, +[…] PB, 2nd experiment, read-out: MIC) was 32 µg/mL (≈ 54.6 µM), the MIC (A. baumannii A472 [10]; A472, read-out: MIC +[…] PB, A. baumannii A472, +[…] polymyxin B, 1st experiment) was 16 µg/mL (≈ 27.3 µM) and the MBC (A. baumannii A472 [11]; A472, A. baumannii A472, +[…] PB, 2nd experiment, read-out: MBC) was 32 µg/mL (≈ 54.6 µM). The MBC (A. baumannii A472 [11]; A472, read-out: MBC +[…] PB, A. baumannii A472, +[…] polymyxin B, 1st experiment) was 32 µg/mL (≈ 54.6 µM), the “MIC without PB/MIC + PB” value (A. baumannii A473 [12]; A. baumannii A473, +0.06 μg/ml PB, 2nd experiment) was ≥1 and the MIC (A. baumannii A473 [12]; Acinetobacter baumannii, A473) was 128 µg/mL (≈ 219 µM). For the same molecule, the MBC (A. baumannii A489; A489, A. baumannii A489, +[…] PB, 2nd experiment, read-out: MBC) was 64 µg/mL (≈ 109 µM), the MBC (A. baumannii A489; A489, read-out: MBC +[…] PB, A. baumannii A489, +[…] polymyxin B, 1st experiment) was 128 µg/mL (≈ 219 µM) and the “MIC without PB/MIC + PB” value (A. baumannii NCTC 13301 [13]; A. baumannii NCTC 13301, ratio, PB […], 1st experiment) was ≥1. The MIC (A. baumannii NCTC 13301 [13]; Acinetobacter baumannii, NCTC13301, read-out: MIC +[…] PB) was > 128 µg/mL, the “MIC without PB/MIC + PB” value (A. baumannii NCTC 13301 [14]; A. baumannii NCTC 13301, +[…] PB, 2nd experiment) was ≥1 and the MIC (A. baumannii NCTC 13301 [14]; Acinetobacter baumannii, NCTC13301) was 128 µg/mL (≈ 219 µM). The “MIC +0.06 μg/ml PB” value (A. baumannii A14 [15]; +0.06 μg/ml polymyxin B) was 16 µg/mL, the “MIC without PB/MIC + PB” value (A. baumannii A14 [15]; ratio, PB 0.06 μg/ml) was 2 and the MIC (A. baumannii A14 [16]) was 8 µg/mL (≈ 13.7 µM). For the same molecule, the “MIC without PB/MIC + PB” value (A. baumannii A14 [16]) was 2 and the “MBC +0.06 μg/ml PB” value (A. baumannii A14 [17]) was 16 µg/mL.
